Patent EP0233441A1, “New enzyme inhibitor” (Astra Läkemedel Aktiebolag, priority 1985, dated 1987)

What was measured:
[1] = target: T1, CMP-KDO synthetase (CKS) (Escherichia coli, UniProt P04951); experiment: CKS Assay (enzyme inhibition); type: biochemical; details: percent of a control without inhibitor, read-out: Percentage of inhibition of CKS
T1 construct: made in house
Method: (§1) Potential inhibitors were tested for inhibitory action against two key enzymes involved in the biosynthesis of bacterial LPS.
I. CMP-KDO synthetase (CKS) which catalyses the reaction [drawing 20]
The CKS enzyme was prepared essentially as described by Osborne [J-.Biol.Chem. […]] and the enzyme assayed by the method of Ghalambor and Heath (J.Biol.Chem. 241 (1966) 3216-3221).
(§2) Inhibition of CKS and KLT enzymes by compound I is given in Table I. The inhibitory action is expressed in percent of a control without inhibitor run simultaneously.

[2] = target: CMP-KDO lipid A transferase (KLT) (Salmonella typhimurium, UniProt Q8ZL49); experiment: KLT Assay (incorporation of [14-C]-labelled CMP-KDO into acid-insoluble product; CMP-KDO generated in situ by added CKS); type: biochemical; details: percent of a control without inhibitor, read-out: Percentage of inhibition of KLT
Chain of CMP-KDO lipid A transferase (KLT) (Q8ZL49 entry or part of it): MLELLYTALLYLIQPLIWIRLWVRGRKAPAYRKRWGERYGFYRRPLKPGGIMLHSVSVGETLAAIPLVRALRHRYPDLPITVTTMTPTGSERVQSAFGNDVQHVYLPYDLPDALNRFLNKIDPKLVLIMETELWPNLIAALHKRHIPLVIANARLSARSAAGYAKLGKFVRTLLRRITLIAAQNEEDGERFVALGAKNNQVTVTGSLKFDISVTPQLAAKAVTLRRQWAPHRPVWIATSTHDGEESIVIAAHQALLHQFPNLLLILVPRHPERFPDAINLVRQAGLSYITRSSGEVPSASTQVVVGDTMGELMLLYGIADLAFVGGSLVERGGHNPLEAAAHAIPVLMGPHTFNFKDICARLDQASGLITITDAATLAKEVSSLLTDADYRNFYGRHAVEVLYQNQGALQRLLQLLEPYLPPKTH
Method: as §1
CMP-KDO lipid A transferase (KLT) which transfers CMP-KDO to an intermediate in the biosynthesis of LPS known as lipid A precursor [drawing 21]
The KLT enzyme was purified essentially by the method of Osborne (J.Biol.Chem. 252 (1977) 4895-4903). KLT activity was determined by monitoring the incorporation of [14-C]-labelled CMP-KDO into acid- insoluble product. The radio labelled CMP-KDO was generated in situ from CTP and [14-C]-KDO by the action of added CKS enzyme. The incubation mixture contained CKS enzyme, KLT enzyme, 110 mM Tris buffer pH 8.0, 10.6 mM NaCl, 0.5 mM CTP, 0.4%, Alfonic 1012-6 (Trade name), 0.16 mM [14-c] KDO and lipid A precursor. The final reaction volume was 150 µl. The mixture was incubated at 25°C for 15 min., when 50 µl was transferred to a filter paper circle (Munktell No. 5,24 mm.) and then washed copiously with 10% TCA. The radioactivity adsorbed on the paper circle, which represents radiolabelled KDO bound to precursor was determined using liquid scintillation counting.
as §2

T1 sequence (P04951 whole entry): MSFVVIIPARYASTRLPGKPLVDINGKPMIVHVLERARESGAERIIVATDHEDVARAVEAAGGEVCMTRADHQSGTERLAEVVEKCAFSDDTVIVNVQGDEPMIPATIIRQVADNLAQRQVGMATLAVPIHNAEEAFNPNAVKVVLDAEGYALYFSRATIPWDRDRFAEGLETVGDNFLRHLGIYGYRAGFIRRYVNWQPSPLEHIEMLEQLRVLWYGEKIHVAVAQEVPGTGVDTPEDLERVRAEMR

`O=C(O)[C@@H]1C[C@@H](O)[C@@H](O)[C@@H]([C@H](O)CO)O1` [compound I, ammonium 2,6-anhydro-3-deoxy-D- -glycero-D -talo-octonate] was tested, and the inhibition at 2.5 µM ([1]; 0.0025 mM compound) was 8%, the inhibition at 10 µM ([1]; 0.01 mM compound) was 36% and the inhibition at 40 µM ([1]; 0.04 mM compound) was 68%. It also gave an inhibition at 160 µM ([1]; 0.16 mM compound) of 90%, an inhibition at 640 µM ([1]; 0.64 mM compound) of 98% and an inhibition at 2540 µM ([1]; 2.54 mM compound) of 99%. The inhibition at 10160 µM ([1]; 10.16 mM compound) was 98%, the inhibition at 0.625 µM ([2]; 0.000625 mM compound) was 5% and the inhibition at 2.5 µM ([2]; 0.0025 mM compound) was 24%. The inhibition at 10 µM ([2]; 0.01 mM compound) was 57%, the inhibition at 40 µM ([2]; 0.04 mM compound) was 81% and the inhibition at 160 µM ([2]; 0.16 mM compound) was 89%. The inhibition at 640 µM ([2]; 0.64 mM compound) was 98%.
